Data on 2 molecules can be found in patent publication US10759814B2, “Pharmaceutical compositions containing substituted polycyclic pyridone derivatives and prodrug thereof” (priority 2016, dated 2020).

Read-outs that look alike come from different tables or passages of the source.

Series [1] can be described thus: Metabolism stability test. It counts as in vitro ADME, human. The note with it: 2 μmol/L of test compound; 37° C., 30 minutes. The method, then:
Test Example 5: Metabolism Stability Test
A reaction was performed (oxidative reaction) at 37° C. for 0 minute or 30 minutes in the presence of 1 mmol/L NADPH in 0.2 mL of a buffer (50 mmol/L Tris-HCl pH 7.4, 150 mmol/L potassium chloride, 10 mmol/L magnesium chloride) containing 0.5 mg protein/mL of human liver microsomes. After the reaction, 50 μL of the reaction solution was added to 100 μL of a methanol/acetonitrile=1/1 (v/v), mixed and centrifuged at 3000 rpm for 15 minutes. The compound used in the present invention in the supernatant was quantified by LC/MS/MS or Solid Phase Extraction (SPE)/MS, and a remaining amount of the compound used in the present invention after the reaction was calculated, letting a compound amount at 0 minute reaction time to be 100%. Hydrolysis reaction was performed in the absence of NADPH and glucuronidation reaction was in the presence of 5 mM UDP-glucuronic acid in place of NADPH, followed by similar operations.

In another series the test system is red blood cells. As to the kind of experiment: Light hemolysis test. It counts as cell-based, sheep. The conditions noted are these: UV-irradiation 290 to 400 nm; 0.0008 to 0.1 w/v %. The procedure:
Test Example 12: Light Hemolysis Test
The compound used in the present invention was dissolved at target concentrations and was mixed with a 2.5 v/v % suspension of red blood cells prepared from a defibrinated blood of sheep on a microplate at concentrations of 0.0008 to 0.1 w/v %. The mixtures were exposed to […] of UV-irradiation within a range of wavelength 290 to 400 nm, UVA and UVB using ultra violet fluorescent lamps, GL20SE and FL20S-BLB lamps manufactured by Sankyo Denki Co., Ltd. and Panasonic Corporation, respectively. After the completion of the irradiation, the mixtures were centrifuged, and a supernatant of the mixture was collected and was located on a microplate. The phototoxicity was assessed by measuring an absorbance at wavelength of 540 nm and 630 nm in the supernatant. The absorbance data at wavelength of 540 nm and 630 nm were used as indicators of biomembrane damage (photohemolysis %) and hyperoxidation of lipid membrane (methemoglobin formation), respectively. The criteria of phototoxicity was as follows; It was judged to be non-phototoxic (−) when the photohemolysis %<10 and the maximal change in the absorbance at 630 nm (ΔOD)<0.05 were observed. It was judged to be […] when the photohemolysis was more than 10% and the maximal change in the absorbance at 630 nm (ΔOD) was more than 0.05.

A further series relates to influenza virus. The format is in vivo, human. The conditions noted are these: 20 to <65 years old.
Series [2] is classed as in vivo, human. The conditions noted are these: Compound II-6 single 40 or 80 mg; Oseltamivir 75 mg twice a day for 5 days. From the text: (4) Incidence of side effects
(4) Incidence of Side Effects
The number of side-effect episodes and the number of patients with side effect were counted for each administration group.

With `O=C1c2c(O)c(=O)ccn2N([C@@H]2c3ccccc3SCc3c2ccc(F)c3F)[C@@H]2COCCN12` [III-2], the “remaining rate after reaction with human liver microsomes (printed: % inhibition)” value in series [1] was determined as 90.1%. The phototoxicity entry in the series on red blood cells was “(−) (It was judged to be non-phototoxic (−) when the photohemolysis %<10 and the maximal change in the absorbance at 630 nm (ΔOD)<0.05 were observed)”.
As for `CCOC(=O)C1=C[C@@H](OC(CC)CC)[C@H](NC(C)=O)[C@@H](N)C1` [Oseltamivir, reference compound], the “Amount of change in virus titer from baseline, mean” value is −2.51 log10 [TCID50/mL] in the series on influenza virus (Day 2 (24 hours later)); −4.20 log10 [TCID50/mL] in the series with influenza virus (Day 3 (48 hours later)); −4.63 log10 [TCID50/mL] in the series on influenza virus (Day 4 (72 hours later)); −4.98 log10 [TCID50/mL] with influenza virus (Day 5 (96 hours later)); −4.85 log10 [TCID50/mL] in the series with influenza virus (Day 6 (120 hours later)); −5.22 log10 [TCID50/mL] with influenza virus (Day 9 (192 hours later)). The “Proportion of patients having a positive influenza virus titer” value was 91.0% in the series on influenza virus (Day 2 (24 hours later)); 57.3% with influenza virus (Day 3 (48 hours later)); 27.6% in the series with influenza virus (Day 4 (72 hours later)); 20.9% in the series on influenza virus (Day 5 (96 hours later)); 9.0% in the series with influenza virus (Day 6 (120 hours later)); 3.2% in the series on influenza virus (Day 9 (192 hours later)). The “Incidence of adverse events the causal relationship of which cannot be denied (patients)” value in series [2] is 8.4%.
